The results in this text go back to patent publication US10654834B2 (Venenum Biodesign, LLC, priority 2016, dated 2020).

Molecules are shown by their SMILES.

As a reminder, the EC50 is the midpoint of the concentration-response curve. For orientation: Cmax means the peak of the concentration-time curve.

Data set [1] concerns Mouse STC-1 cells. The data set is described as follows: STC-1 GLP-1 assay (GLP-1 secretion). The note with it: Mouse STC-1 cells, GLP-1 secretion, 2 h; read-out: Mouse STC-1 HTRF GLP-1 Activity (EC50). Type of data set: cell-based. How it is done:
Compounds of the present invention were evaluated for their ability to induce GLP-1 production in mouse intestinal neuroendocrine tumor cells.
Mouse STC-1 cells were cultured and maintained in high glucose DMEM (Sigma #5796) supplemented with 15% horse serum, 5% Fetal Bovine Serum (FBS), 1%° penicillin/streptomycin, and 2 mM L-alanine L-glutamine (GlutaMax). Two days prior to analysis of GLP-1 secretion cells were harvested using Accutase (Sigma), spun down then resuspended in high glucose DMEM media containing 2 mM L-alanine L-glutamine (GlutaMax), 10% charcoal-dextran stripped FBS, and 50 μg/mL Gentamicin, at a density of 100,000° cells/mL. 100 μL of cell suspension was added to each well of a 96-well Poly-D-Lysine coated culture plate (Sigma; cat #2382493) and was incubated at 37° C. with 5% CO2.
Compounds were initially diluted in 100% DMSO (12-point serial dilution by half logs) in a 96-well plate and then were further diluted 1:500 in Hanks' Balanced Salt Solution (HBSS) containing protease inhibitor cocktail, DPP-IV inhibitor, and 0.1% fatty acid free bovine serum albumin. On the day of the experiment cells were washed once with HBSS. After wash, 100 μL of test compound was added to each well. The plate was incubated at 37° C. with 5% CO2 for 2° h. Supernatants were collected and GLP-1 secretion was measured using the Cisbio™ Active GLP-1 HTRF Assay Kit (CisBio). Briefly, Anti-GLP-1-d2 conjugate and Anti-GLP-1 Terbium Cryptate conjugate stock solutions were prepared as per kit instructions. The two solutions were pre-mixed and 10 μL were transferred to a 384-well low volume plate (Greiner; cat #784075). 10 μL of collected supernatants were added to wells already containing the conjugate solution. The plate was covered and incubated at room temperature overnight. The plate was read on an Envision™ plate reader (PerkinElmer).
In Table 53, EC50 values were obtained from the STC-1 GLP-1 production assay for compounds of the present invention are summarized.
(Time-resolved FRET reads energy transfer from a long-lived donor to a nearby acceptor.)

The target in data set [2] is T1, mouse TGR5 receptor (Mus musculus, UniProt Q80SS6).
T1 construct: host or cells: HEK293-EBNA (293 c18, ATCC CRL10852)
T1 sequence (Q80SS6 1-329): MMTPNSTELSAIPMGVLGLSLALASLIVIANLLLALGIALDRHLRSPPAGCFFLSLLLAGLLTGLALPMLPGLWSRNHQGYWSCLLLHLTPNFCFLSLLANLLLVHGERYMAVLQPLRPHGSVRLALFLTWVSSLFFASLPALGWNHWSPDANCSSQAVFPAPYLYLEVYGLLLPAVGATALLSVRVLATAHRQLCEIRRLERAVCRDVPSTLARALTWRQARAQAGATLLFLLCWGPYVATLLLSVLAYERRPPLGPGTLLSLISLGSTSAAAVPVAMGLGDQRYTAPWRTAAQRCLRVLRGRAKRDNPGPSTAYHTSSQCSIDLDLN
As to the kind of experiment: Mouse TGR5 luminescent cAMP production assay (HEK293-EBNA cells, DiscoveRx cAMP XS+ kit). Type of data set: cell-based. The note with it: HEK293-EBNA cells overexpressing mouse TGR5, luminescent cAMP assay; read-out: Mouse TGR5 Lum. cAMP Activity (EC50). The essentials:
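HEK293-EBNA cells stably expressing mouse TGR5, resuspended in serum-free DMEM with 500 μM IBMX, were premixed 20 min with cAMP antibody, then exposed to half-log compound dilutions for 1 h at room temperature. cAMP was read by luminescent enzyme-fragment complementation (cAMP XS+) after overnight incubation; EC50 derived.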

The target in data set [3] is T2, human TGR5 receptor (Homo sapiens, UniProt Q8TDU6).
T2 construct: host or cells: CHO-K1 (hTGR5-CHO)
T2 sequence (Q8TDU6 1-330): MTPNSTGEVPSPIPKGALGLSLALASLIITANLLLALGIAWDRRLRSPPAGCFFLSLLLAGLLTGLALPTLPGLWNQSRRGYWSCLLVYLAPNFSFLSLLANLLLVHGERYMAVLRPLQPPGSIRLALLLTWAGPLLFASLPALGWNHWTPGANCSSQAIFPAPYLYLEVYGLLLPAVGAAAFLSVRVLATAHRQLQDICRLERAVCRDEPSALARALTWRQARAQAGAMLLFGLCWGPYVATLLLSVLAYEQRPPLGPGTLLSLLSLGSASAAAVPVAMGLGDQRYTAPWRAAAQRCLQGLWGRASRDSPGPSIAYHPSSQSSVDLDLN
As to the kind of experiment: Human TGR5 cAMP production assay (hTGR5-CHO cells, DiscoveRx cAMP XS+ kit). Type of data set: cell-based. The note with it: luminescent cAMP assay, read-out: Human TGR5 Lum. cAMP Activity (EC50). The essentials: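 EC50 values come from luminescent enzyme-complementation cAMP detection, read after overnight incubation. Beforehand, hTGR5-expressing CHO-K1 cells with IBMX and anti-cAMP antibody were exposed 1 h at room temperature to serially diluted (half-log) compounds.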
Background: Cyclic AMP is a second messenger, typically raised through Gs and lowered through Gi signalling.

The target in data set [4] is T1, mouse TGR5 receptor. The data set is described as follows: Mouse TGR5 HTRF cAMP production assay (HEK293-EBNA cells, Cisbio cAMP HiRange kit). In kind it is cell-based. The note with it: HEK293-EBNA cells overexpressing mouse TGR5, HTRF cAMP assay. The essentials:
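cAMP accumulation was read by competitive HTRF after 1 h room-temperature compound treatment, with a further 1 h conjugate incubation. Cells were mouse TGR5-overexpressing HEK293-EBNA in serum-free DMEM plus 500 μM IBMX. Compounds ran as 12-point half-log series in duplicate, and EC50 values were reported.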

The nature of data set [5]: Pharmacokinetic profile in mice after oral gavage. In kind it is in vivo, mouse. The note with it: mouse; fasted male Hilltop mice, 10 mg/kg oral gavage, plasma; read-out: Cmax. In a few lines:
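Plasma exposure (Cmax, AUC) by non-compartmental analysis of LC-MS/MS data, orbital blood taken at 0, 0.25, 0.5, 1, 2 and 4 h, each value averaging three mice. Dosing: 10 mg/kg oral gavage to overnight-fasted male Hilltop mice (8 weeks), vehicle PEG400/CMC/Tween-80.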

As for `O=C(NCCc1ccc(C(F)(F)F)cc1)[C@@H]1CCCN1c1cc(N2CCC(CO)CC2)nc(C(F)(F)F)n1` [Compound 2, (S)-1-(6-(4-(hydroxymethyl)piperidin-1-yl)-2-(trifluoromethyl)pyrimidin-4-yl)-N-(4-(trifluoromethyl)-phenethyl)pyrrolidine-2-carboxamide], the values for the EC50 in data set [1], in data set [2] and in data set [3] were 100 to 999 nM, < 100 nM and < 100 nM, respectively.
For the compound `CN(C)CC1CCN(c2cc(N3CCC[C@H]3C(=O)NCCc3ccc(C#N)cc3)nc(C(F)(F)F)n2)CC1` [Compound 19], the EC50 in data set [1] was 1000 to 30000 nM; in data set [2], < 100 nM; in data set [3], 100 to 999 nM.
The matching figures for `O=C(NCCc1ccc(C(F)(F)F)cc1)[C@@H]1CCCN1c1cc(OC2CCOCC2)nc(C(F)(F)F)n1` [Compound 40, (S)-1-(6-((tetrahydro-2H-pyran-4-yl)oxy)-2-(trifluoromethyl)pyrimidin-4-yl)-N-(4-(trifluoromethyl)phenethyl)pyrrolidine-2-carboxamide]: 100 to 999 nM, < 100 nM and < 100 nM.
The matching figures for `N#Cc1ccc(CCNC(=O)[C@@H]2CCCN2c2cc(OC3CCOCC3)nc(C(F)(F)F)n2)cc1` [Compound 41, (S)-N-(4-cyanophenethyl)-1-(6-((tetrahydro-2H-pyran-4-yl)oxy)-2-(trifluoromethyl)pyrimidin-4-yl)pyrrolidine-2-carboxamide]: 100 to 999 nM, < 100 nM and < 100 nM.
The matching figures for `N#Cc1ccc(CCNC(=O)[C@@H]2CCCN2c2cc(N3CCC(CN)CC3)nc(C(F)(F)F)n2)cc1` [Compound 47, (S)-1-(6-(4-(aminomethyl)piperidin-1-yl)-2-(trifluoromethyl)pyrimidin-4-yl)-N-(4-cyanophenethyl)pyrrolidine-2-carboxamide]: 1000 to 30000 nM, 100 to 999 nM and < 100 nM.
For `Cc1ccc(-c2cc(N3CCC[C@H]3C(=O)NCCc3ccc(C#N)cc3)nc(C(F)(F)F)n2)s1` [Compound 170, (S)-N-(4-cyanophenethyl)-1-(6-(5-methylthiophen-2-yl)-2-(trifluoromethyl)pyrimidin-4-yl)pyrrolidine-2-carboxamide], the EC50 in data set [2], in data set [4] and in data set [3] was 100 to 999 nM each time.
Take `Cc1csc(-c2cc(N3CCC[C@H]3C(=O)NCCc3ccc(C#N)cc3)nc(C(F)(F)F)n2)c1` [Compound 171, (S)-N-(4-cyanophenethyl)-1-(6-(4-methylthiophen-2-yl)-2-(trifluoromethyl)pyrimidin-4-yl)pyrrolidine-2-carboxamide]: the EC50 is 100 to 999 nM in data set [2], < 100 nM in data set [4] and 100 to 999 nM in data set [3].
As for `N#Cc1ccc(CCNC(=O)[C@@H]2CCCN2c2cc(-c3cc4ccccc4s3)nc(C(F)(F)F)n2)cc1` [Compound 173, (S)-1-(6-(benzo[b]thiophen-2-yl)-2-(trifluoromethyl)pyrimidin-4-yl)-N-(4-cyanophenethyl)pyrrolidine-2-carboxamide], the EC50 in data set [2], in data set [4] and in data set [3] was 100 to 999 nM in each case.
On to `N#Cc1ccc(CCNC(=O)[C@@H]2C[C@@H](O)CN2c2cc(N3CCC(CCO)CC3)nc(C(F)(F)F)n2)cc1` [Compound 210, (2S,4R)—N-(4-cyanophenethyl)-4-hydroxy-1-(6-(4-(2-hydroxyethyl)piperidin-1-yl)-2-(trifluoromethyl)pyrimidin-4-yl)pyrrolidine-2-carboxamide], for which the Cmax in data set [5] came out at 54 ng/mL. The EC50 in data set [2] and in data set [3] was 100 to 999 nM in each case.
In the case of `CC(=O)NCCNc1cc(N2CCC[C@@H](C(=O)NCCc3ccc(C(F)(F)F)cc3)C2)nc(C(F)(F)F)n1` [Compound 324, (R)-1-(6-((2-acetamidoethyl)amino)-2-(trifluoromethyl)pyrimidin-4-yl)-N-(4-(trifluoromethyl)phenethyl)piperidine-3-carboxamide], the results for the 50% effective concentration (EC50) in data set [2] and in data set [3] were 100 to 999 nM and 1000 to 30000 nM, respectively.
The corresponding values for `O=C(NCCc1ccc(C(F)(F)F)cc1)[C@@H]1CCCN(c2cc(NCCN3CCOCC3)nc(C(F)(F)F)n2)C1` [Compound 325, (R)-1-(6-((2-morpholinoethyl)amino)-2-(trifluoromethyl)pyrimidin-4-yl)-N-(4-(trifluoromethyl)phenethyl)-piperidine-3-carboxamide] are < 100 nM and 100 to 999 nM.
The corresponding values for `O=C(NCCc1ccc(C(F)(F)F)cc1)[C@@H]1CCCN(c2cc(NC3CCOCC3)nc(C(F)(F)F)n2)C1` [Compound 326, (R)-1-(6-((tetrahydro-2H-pyran-4-yl)amino)-2-(trifluoromethyl)-pyrimidin-4-yl)-N-(4-(trifluoromethyl)phenethyl)piperidine-3-carboxamide] are < 100 nM and 100 to 999 nM.
For `O=C(NCCc1ccc(C(F)(F)F)cc1)[C@@H]1CCCN(c2cc(N3CCNCC3)nc(C(F)(F)F)n2)C1` [Compound 327, (R)-1-(6-(piperazin-1-yl)-2-(trifluoromethyl)pyrimidin-4-yl)-N-(4-(trifluoromethyl)phenethyl)piperidine-3-carboxamide], the EC50 in data set [2] lay within 100 to 999 nM; in data set [3], 1000 to 30000 nM.
Consider `N#Cc1ccc(CCNC(=O)[C@@H]2CCCN(c3cc(OC4CCOCC4)nc(C(F)(F)F)n3)C2)cc1` [Compound 334], for which the EC50 in data set [2] and in data set [3] was < 100 nM each time.
Regarding `O=C(NCCc1ccc(C(F)(F)F)cc1)[C@@H]1CCCN(c2cc(OC3CCOCC3)nc(C(F)(F)F)n2)C1` [Compound 335, (R)-1-(6-((tetrahydro-2H-pyran-4-yl)oxy)-2-(trifluoromethyl)pyrimidin-4-yl)-N-(4-(trifluoromethyl)-phenethyl)piperidine-3-carboxamide], the EC50 in data set [2] and in data set [3] was 100 to 999 nM throughout.
In the case of `COCC(=O)N1CCN(c2cc(N3CCC[C@@H](C(=O)NCCc4ccc(C(F)(F)F)cc4)C3)nc(C(F)(F)F)n2)CC1` [Compound 337, (R)-1-(6-(4-(2-methoxyacetyl)piperazin-1-yl)-2-(trifluoromethyl)pyrimidin-4-yl)-N-(4-(trifluoromethyl)phenethyl)piperidine-3-carboxamide], the values for the EC50 in data set [2] and in data set [3] were < 100 nM and 100 to 999 nM, respectively.
